From patent US9499493B2, “2,4-pyrimidinediamine compounds and their uses” (Rigel Pharmaceuticals, Inc., priority 2002, dated 2016)

Legend:
[1] = system: FcγRI-mediated degranulation; assay: FcγRI receptor-mediated degranulation (activation with anti-human IgG Fab fragment); type: cell-based; details: cells not primed with IgE, activated with rabbit anti-human IgG Fab fragment
[2] = Pharmacokinetics / oral bioavailability in rats; type: in vivo; details: rats
Procedure: Over 50 2,4-pyrimidinediamine compounds of the invention were tested for oral bioavailability. For the study, compounds were dissolved in various vehicles (e.g. PEG 400 solution and CMC suspension) for intravenous and oral dosing in the rats. Following administration of the drug, plasma samples were obtained and extracted. The plasma concentrations of the compounds were determined by high performance liquid chromatography/tandem mass spectrometry (LC/MS/MS) methods. Pharmacokinetic analyses were performed based on the plasma concentration data. The pharmacokinetic parameters of interest include Clearance (CL), Volume of distribution at steady-state (Vss), terminal half-life (t1/2), and oral bioavailability (% F).

[3] = system: cultured human mast cells (CHMC); assay: CHMC low cell density ionomycin activation: tryptase assay; type: cell-based
[4] = system: cultured human mast cells (CHMC); assay: CHMC low cell density IgE activation: tryptase assay; type: cell-based; details: anti-IgE
Method in brief: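 Low-density CHMC assay: donor-adjusted 1000-1500 cells/well, MT buffer, 1 hr 37° C preincubation; anti-IgE stimulus 30 min 37° C versus MT-only controls; supernatant tryptase by substrate, 30 min RT.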

[5] = Mouse model of allergic asthma (ovalbumin); type: in vivo; details: for methacoline-induced bronchocontriction: mouse, in vivo
Description: Mice are sensitized to ovalbumin (chicken protein) in the presence of an adjuvant (Alum) by the intraperitoneal route on day 0 and day 7. One week later, mice are challenged intranasally with ovalbumin on Days 14, 15 and 16 (more stringent model) or on Day 14 (less stringent model). This sensitization and challenge regimen leads to airway hyperresponsiveness and inflammation in the lungs, which are two dominant characteristics of human allergic asthma. In the mouse model, the in vivo airway responses are measured using a whole body plethysmograph which determines the PENH (enhanced Pause, Buxco Electronics). The PENH is a dimensionless value comprised of the peak inspiratory flow (PIF), peak expiratory flow (PEF), time of inspiration, time of expiration and relaxation time, and is considered a validated parameter of airway responsiveness. Responses to allergen challenge (OVA) are compared with animals challenged with saline only. Twenty-four hours after challenge, mice are exposed to increasing doses of methacholine (muscarinic receptor agonist) which results in smooth muscle contraction. […] In addition, a cellular infiltrate in the airway is observed in ovalbumin challenged mice when compared with the saline challenged mice. This cellular infiltrate is mainly characterized by eosinophils, but a smaller influx of neutrophils and mononuclear cells is also present.
The use of this model for the evaluation of small molecule inhibitors of mast cell degranulation has been validated is several ways. First, using mast cell deficient mice (W/W^v) it has been shown that the ovalbumin-induced responses are dependent upon the presence of mast cells.

[6] = system: bone marrow derived mast cells (BMMC); assay: BMMC high cell density IgE activation: histamine; type: cell-based, mouse; details: anti-IgE, second part of TABLE 1
Procedure: (§1) Inhibition of degranulation was measured at both low and high cell density by quantifying the release of the granule specific factors tryptase, histamine and hexosaminidase. Inhibition of release and/or synthesis of lipid mediators was assessed by measuring the release of leukotriene LTC4 and inhibition of release and/or synthesis of cytokines was monitored by quantifying TNF-α, IL-6 and IL-13. Tryptase and hexosaminidase were quantified using fluorogenic substrates as described in their respective examples. […] The protocols of the various assays are provided below.
(§2) After sensitizing, cells are counted, pelleted (1000 rpm, 5-10 minutes), and resuspended at 1-3×10^6 cells/ml in MT buffer. Add 100 ul of cell suspension to each well and 100 ul of compound dilutions. The final vehicle concentration is 0.5% DMSO. Incubate at 37° C. (5% CO2) for 1 hour. After 1 hour of compound treatment, stimulate cells with 6× stimulus (60 ng/ml DNP-BSA). Mix wells with the cells and allow plates to incubate at 37° C. (5% CO2) for one hour. After 1 hour incubation, pellet cells (10 minutes, 1000 RPM) and collect 200 ul per well of the supernatant, being careful not to disturb pellet, and transfer to a clean tube or 96-well plate. Place the supernatant plate on ice. During the 4-5 hour step (see next) perform the hexosiminidase assay. Resuspend cell pellet in 240 ul WEI-conditioned media containing 0.5% DMSO and corresponding concentration of compound. Incubate BMMC cells for 4-5 hours at 37° C. (5% CO2). After incubation, pellet cells (1000 RPM, 10 minutes) and collect 225 ul per well and place in −80° C. until ready to perform ELISAS. ELISAS are performed on appropriately diluted samples (determined empirically for each donor cell population so that the sample measurement falls within the standard curve) following the supplier's instructions.

[7] = system: bone marrow derived mast cells (BMMC); assay: BMMC high cell density IgE activation: hexosaminidase; type: cell-based, mouse; details: anti-IgE, second part of TABLE 1, read-out: BMMC anti-IgE hexos. IC50
Procedure: as §2
Hexosaminidase assay: In a solid black 96-well assay plate, add 50 uL hexosaminidase substrate (4-methylumbelliferyl-N-acetyl-(3-D-glucosaminide; 2 mM) to each well. Add 50 uL of BMMC cell supernatant (see above) to the hexoseaminidase substrate, place at 37° C. for 30 minutes and read the plate at 5, 10, 15, and 30 minutes on a spectrophotometer.

[8] = system: bone marrow derived mast cells (BMMC); assay: BMMC high cell density IgE activation: IL-6; type: cell-based, mouse; details: anti-IgE, second part of TABLE 1
Procedure: as §1, §2

Jurkat cells = assay: Jurkat toxicity, Cell Titer Glo assay; type: cell-based; details: 18 hours incubation
Procedure: Seed 50 μl cells (1×10^6/ml) into each well containing 50 μl compound. […] Shake plates for 1 minute to mix cells and compound. Incubate plates at 37° C. […] Next day, harvest 50 μl cells from each well, add to 50 μl Cell Titer Glo reagent ([…]). Shake plates for 1 minute. Read on luminometer.

[9] = system: bone marrow derived mast cells (BMMC); assay: BMMC high cell density IgE activation: TNFalpha; type: cell-based, mouse; details: anti-IgE, second part of TABLE 1, read-out: BMMC anti-IgE TNF-alpha IC50
Procedure: as §1, §2

[10] = system: bone marrow derived mast cells (BMMC); assay: BMMC high cell density IgE activation: LTC4; type: cell-based, mouse; details: anti-IgE, second part of TABLE 1
Procedure: as §1, §2

[11] = system: cultured human mast cells (CHMC); assay: CHMC high cell density IgE activation: tryptase; type: cell-based; details: anti-IgE activation
Procedure: (§3) After sensitizing, cells are counted, pelleted (1000 rpm, 5-10 minutes), and resuspended at 1-2×10^6 cells/ml in MT buffer. Add 100 ul of cell suspension to each well and 100 ul of compound dilutions. The final vehicle concentration is 0.5% DMSO. Incubate at 37° C. (5% CO2) for 1 hour. After 1 hour of compound treatment, stimulate cells with 6× anti-IgE. Mix wells with the cells and allow plates to incubate at 37° C. (5% CO2) for one hour. After 1 hour incubation, pellet cells (10 minutes, 1000 RPM) and collect 200 ul per well of the supernatant, being careful not to disturb pellet. Place the supernatant plate on ice. During the 7-hour step (see next) perform tryptase assay on supernatant that had been diluted 1:500. Resuspend cell pellet in 240 ul of CM media containing 0.5% DMSO and corresponding concentration of compound. Incubate CHMC cells for 7 hours at 37° C. (5% CO2). After incubation, pellet cells (1000 RPM, 10 minutes) and collect 225 ul per well and place in −80° C. until ready to perform ELISAS. ELISAS are performed on appropriately diluted samples (determined empirically for each donor cell population so that the sample measurement falls within the standard curve) following the supplier's instructions.

[12] = system: cultured human mast cells (CHMC); assay: CHMC high cell density IgE activation: histamine; type: cell-based; details: anti-IgE activation
Procedure: as §1, §3

[13] = system: cultured human mast cells (CHMC); assay: CHMC high cell density IgE activation: IL-13; type: cell-based; details: anti-IgE activation
Procedure: as §1, §3

[14] = system: cultured human mast cells (CHMC); assay: CHMC high cell density IgE activation: LTC4; type: cell-based; details: anti-IgE activation
Procedure: as §1, §3

[15] = system: cultured human mast cells (CHMC); assay: CHMC high cell density IgE activation: hexos (hexosaminidase) release; type: cell-based; details: anti-IgE activation
Procedure: as §1, §3

CHMC cells = assay: Phosphorylation of proteins downstream of Syk / LYN kinase in the FcεRI cascade, activated CHMC cells; type: cell-based, human; details: FIG. 10

For `Fc1cnc(Nc2ccc3cn[nH]c3c2)nc1Nc1ccc(Cl)c(Cl)c1` [R935372, N4-(3,4-Dichlorophenyl)-5-fluoro-N2-(indazoline-6-yl)-2,4-pyrimidinediamine], the “FcγRI-mediated degranulation (in words)” value [1] was “inhibit FcγRI-mediated degranulation”, the “oral bioavailabilities and half-lives (in words)” value [2] was “good” and the IC50 [3] was greater than 10000 nM. For the same compound, the IC50 [4] was 60 nM.

With `CNC(=O)COc1cccc(Nc2ncc(F)c(Nc3ccc4c(n3)NC(=O)CO4)n2)c1` [R921304, 5-Fluoro-N2-(3-methylaminocarbonylmethyleneoxyphenyl)-N4-[2H-pyrido[3,2-b]-1,4-oxazin-3(4H)-one-6-yl]-2,4-pyrimidinediamine] the IC50 [3] was greater than 10000 nM, the “ovalbumin-induced airway hyperresponsiveness to methacholine” value ([5]; intranasal, 20 mg/kg, 10 consecutive days (Day 7 through Day 16)) was “able to inhibit” and the IC50 [4] was 85 nM.

In the case of `C[C@@H]1C[C@H]2[C@@H]3CCC4=CC(=O)C=C[C@]4(C)[C@@]3(F)[C@@H](O)C[C@]2(C)[C@@]1(O)C(=O)CO` [dexamethasone], the methacoline-induced bronchocontriction [5] is reported as “inhibitory effect”.

`Cn1ncc2cc(Nc3ncc(F)c(Nc4ccc5c(c4)OCCO5)n3)ccc21` [R935193, N4-(3,4-Ethylenedioxyphenyl)-5-fluoro-N2-(1-methyl-indazoline-5-yl)-2,4-pyrimidinediamine] showed an IC50 [6] of 48 nM, an IC50 [7] of 80 nM and an IC50 [8] of 37 nM. The “oral bioavailabilities and half-lives (in words)” value [2] was “good”, the IC50 [3] was greater than 10000 nM and the IC50 [4] was 136 nM.

`O=C(COc1cccc(Nc2ncc(F)c(Nc3ccc4c(c3)OCCO4)n2)c1)NCCO` [R926505, N4-(3,4-Ethylenedioxyphenyl)-5-fluoro-N2-[3-(2-hydroxyethylamino)carbonylmethyleneoxyphenyl]-2,4-pyrimidinediamine] gave an IC50 [6] of less than 220 nM, an IC50 (Jurkat cells) of 4200 nM and an IC50 [7] of less than 220 nM. For the same compound, the IC50 [9] was less than 220 nM, the IC50 [8] was less than 220 nM and the IC50 [3] was greater than 10000 nM. It also gave an IC50 [4] of 145 nM and an IC50 [10] of less than 220 nM.

`COc1cc(Nc2ncc(F)c(Nc3cccc(O)c3)n2)cc(OC)c1` [R926780, N2-(3.5-Dimethoxyphenyl)-5-fluoro-N4-(3-hydroxyphenyl)-2,4-pyrimidinediamine] gave an IC50 [6] of less than 220 nM, an IC50 (Jurkat cells) greater than 5000 nM and an IC50 [7] of less than 220 nM. The IC50 [9] was less than 220 nM, the IC50 [8] was less than 220 nM and the IC50 [3] was greater than 10000 nM. For the same compound, the IC50 [10] was 461 nM.

`CNCCOc1cccc(Nc2ncc(F)c(Nc3ccc4c(c3)OCCO4)n2)c1` [R926510, N4-(3,4-Ethylenedioxyphenyl)-5-fluoro-N2-[3-[2-(N-methylamino)ethyleneoxy]phenyl]-2,4-pyrimidinediamine] gave an IC50 [11] of 1120 nM, an IC50 (Jurkat cells) of 2770 nM and an IC50 [12] of 1670 nM. The IC50 [13] was 686 nM, the IC50 [14] was 417 nM and the IC50 [3] was greater than 10000 nM. It also gave an IC50 [15] of 921 nM and an IC50 [4] of 440 nM.

With `O=C(O)c1cc(=O)c2c(OCC(O)COc3cccc4oc(C(=O)O)cc(=O)c34)cccc2o1` [Cromolyn] the “ovalbumin-induced airway hyperresponsiveness and inflammation” value ([5]; data not shown) was “able to block”.

With `CC1(C)Oc2ccc(Nc3ncc(F)c(Nc4ccc5c(c4)NC(=O)C(C)(C)O5)n3)cc2NC1=O` [R940350, N2,N4-[(2,2-Dimethyl-4H-benzo[1,4]oxazin-3-one)-6-yl]-5-fluoro-2,4-pyrimidinediamine] the “FcγRI-mediated degranulation (in words)” value [1] was “inhibit FcγRI-mediated degranulation”, the “oral bioavailabilities and half-lives (in words)” value [2] was “good” and the IC50 [3] was 4000 nM.

For `COc1cc(Nc2ncc(F)c(Nc3ccc4c(c3)NC(=O)C(C)(C)O4)n2)cc(OC)c1` [R927050], the “FcγRI-mediated degranulation (in words)” value [1] was “inhibit FcγRI-mediated degranulation” and the “oral bioavailabilities and half-lives (in words)” value [2] was “good”.

In the case of `CCCC1O[C@@H]2C[C@H]3[C@@H]4CCC5=CC(=O)C=C[C@]5(C)[C@H]4[C@@H](O)C[C@]3(C)[C@]2(C(=O)CO)O1` (stereo partly drawn) [budesonide], the methacoline-induced bronchocontriction [5] is reported as “inhibitory effect”.

For `CC(C)(C)n1nc(-c2ccc(Cl)cc2)c2c(N)ncnc21` [PP2, reference compound], the “phosphorylation of proteins downstream of LYN kinase” value (CHMC cells) was “inhibition”.
